# Like-named read-outs stand apart in the source and are kept apart here.
# Experiments:
# human liver microsomes = assay: Test B: Metabolic Stability Assay with Human Liver Microsomes; format: in vitro ADME; conditions: 1 uM compound, 1 mg/mL human liver microsomal proteins, 37° C., 0-60 minutes; half-life class
# Description: Test B: Metabolic Stability Assay with Human Liver Microsomes
# Effective viral suppression in the HIV infected patient requires that the antiviral drug persists in the patient's body at concentrations exceeding the minimum concentration required to inhibit viral proliferation. One of the factors controlling the drug levels after dosing is metabolic conversion. The liver is one site of drug metabolism. Approximately 60% of marketed drugs are cleared by hepatic metabolism (McGinnity D F et al. (2004) Drug Metab Dispos 32; 1247-1253). Liver microsomes are subcellular fractions which contain membrane bound drug metabolising enzymes. Human liver microsomes provide a convenient and concentrated source of the key liver metabolic enzymes (e.g., cytochromes P450, UDP-glucuronosyltransferases, and many others) and can be used to predict the metabolic stability of drug candidates (e.g., agents).
# Cluster tubes containing 500 uL of 1 uM compound with 1 mg/mL human liver microsomal proteins (BD Biosciences, BD452117)/50 mM K-phosphate buffer pH7.4/NADPH regenerating system/and UDP-glucuronosyltransferase cofactors, were incubated on the Precision-2000 workstation at 37° C. for 0, 10, 25, 60 minutes. The reactions were quenched with 100 uL of 0.2% formic acid in 90% ACN; containing 50 nM of an internal standard. The samples were analyzed on LC/MS/MS instrument (Q-Trap). Metabolic stabilities in microsomal fractions and hepatocytes were determined by measuring the rate of disappearance of the compound. Data (% of parent remaining) were plotted on a semi logarithmic scale and fitted using an exponential fit.
# HIV-IIIb = assay: Test A: Antiviral Assay in MT4 Cells; format: cell-based; conditions: MT-4 cells infected with HIV-IIIb, 5 days of incubation, CellTiter-Glo, read-out: EC50
# How it was run: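 Read-out: CellTiter-Glo chemiluminescence after 5-day incubation at 37 °C. Compounds tested as 3-fold serial dilutions (10 concentrations, quadruplicate) in RPMI 1640 with 10% FBS, on MT-4 cells pre-infected at 37 °C with HIV-IIIb at 0.004 m.o.i.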
# [1] = Human immunodeficiency virus 1, IIIB, MT4, 120 h, Table 2
# [2] = Human immunodeficiency virus 1, IIIB, MT4, 120 h, Table 1
Structure (SMILES),EC50 (HIV-IIIb; [1]) [nM],other results
"Cc1cc2nc(-c3ccnc(N4CCN(C(C)C)CC4)n3)sc2c(-c2ccc(Cl)cc2)c1[C@H](OC(C)(C)C)C(=O)O [Compound 202, (S)-2-tert-butoxy-2-(7-(4-chlorophenyl)-2-(2-(4-isopropylpiperazin-1-yl)pyrimidin-4-yl)-5-methylbenzo[d]thiazol-6-yl)acetic acid]",2,Human Microsomal stability (human liver microsomes): A (a human microsomal stability half-life of greater than or equal to 300 minutes)
"Cc1cc2nc(-c3ccc4c(c3)ncn4Cc3ccccc3)sc2c(-c2ccc(Cl)cc2)c1[C@H](OC(C)(C)C)C(=O)O [Compound 285, (S)-2-(2-(1-benzyl-1H-benzo[d]imidazol-5-yl)-7-(4-chlorophenyl)-5-methylbenzo[d]thiazol-6-yl)-2-tert-butoxyacetic acid]",–,Human Microsomal stability (human liver microsomes): A (a human microsomal stability half-life of greater than or equal to 300 minutes)
"COc1cncc(-c2cccc(-c3nc4cc(C)c([C@H](OC(C)(C)C)C(=O)O)c(-c5ccc(Cl)cc5)c4s3)c2)c1 [Compound 104, (S)-2-tert-butoxy-2-(7-(4-chlorophenyl)-2-(3-(5-methoxypyridin-3-yl)phenyl)-5-methylbenzo[d]thiazol-6-yl)acetic acid]",–,Human Microsomal stability (human liver microsomes): C (a human microsomal stability half-life of less than 150 minutes); EC50 (HIV-IIIb; [2]): 42 nM
"Cc1cc2nc(-c3ccnc(N4CCN(C5COC5)CC4)n3)sc2c(-c2ccc(Cl)cc2)c1[C@H](OC(C)(C)C)C(=O)O [Compound 336, (S)-2-tert-butoxy-2-(7-(4-chlorophenyl)-5-methyl-2-(2-(4-(oxetan-3-yl)piperazin-1-yl)pyrimidin-4-yl)benzo[d]thiazol-6-yl)acetic acid]",2,Human Microsomal stability (human liver microsomes): A (a human microsomal stability half-life of greater than or equal to 300 minutes)
"Cc1cc2nc(-c3ccc4c(c3)c(-c3cccnc3)nn4C)sc2c(-c2ccc(Cl)cc2)c1[C@H](OC(C)(C)C)C(=O)O [Compound 212, (S)-2-tert-butoxy-2-(7-(4-chlorophenyl)-5-methyl-2-(1-methyl-3-(pyridin-3-yl)-1H-indazol-5-yl)benzo[d]thiazol-6-yl)acetic acid]",6,Human Microsomal stability (human liver microsomes): A (a human microsomal stability half-life of greater than or equal to 300 minutes); EC50 (HIV-IIIb; Table 1): 726 nM
"Cc1cc2nc(-c3ccc4c(c3)c(N3CCN(C)CC3)nn4C)sc2c(-c2ccc(Cl)cc2)c1[C@H](OC(C)(C)C)C(=O)O [Compound 257, (S)-2-tert-butoxy-2-(7-(4-chlorophenyl)-5-methyl-2-(1-methyl-3-(4-methylpiperazin-1-yl)-1H-indazol-5-yl)benzo[d]thiazol-6-yl)acetic acid]",5,Human Microsomal stability (human liver microsomes): A (a human microsomal stability half-life of greater than or equal to 300 minutes)
COc1cc(-c2cccc(-c3nc4cc(C)c([C@H](OC(C)(C)C)C(=O)O)c(-c5ccc(Cl)cc5)c4s3)c2)ccn1 [Compound 152],–,Human Microsomal stability (human liver microsomes): C (a human microsomal stability half-life of less than 150 minutes); EC50 (HIV-IIIb; [2]): 46 nM
"CCN1CCN(c2nccc(-c3nc4cc(C)c([C@H](OC(C)(C)C)C(=O)O)c(-c5ccc(Cl)cc5)c4s3)n2)CC1=O [Compound 473, (S)-2-tert-butoxy-2-(7-(4-chlorophenyl)-2-(2-(4-ethyl-3-oxopiperazin-1-yl)pyrimidin-4-yl)-5-methylbenzo[d]thiazol-6-yl)acetic acid]",8,–
"Cc1cc2nc(-c3ccc4c(C5CCN(C)CC5)nn(C)c4c3)sc2c(-c2ccc(Cl)cc2)c1[C@H](OC(C)(C)C)C(=O)O [Compound 267, (S)-2-tert-butoxy-2-(7-(4-chlorophenyl)-5-methyl-2-(1-methyl-3-(1-methylpiperidin-4-yl)-1H-indazol-6-yl)benzo[d]thiazol-6-yl)acetic acid]",11,–
"Cc1cc2nc(N3CCOC(c4ccc5c(cnn5C)c4)C3)sc2c(-c2ccc(Cl)cc2)c1[C@H](OC(C)(C)C)C(=O)O (stereo partly drawn) [Compound 324, (2S)-2-tert-butoxy-2-(7-(4-chlorophenyl)-5-methyl-2-(2-(1-methyl-1H-indazol-5-yl)morpholino)benzo[d]thiazol-6-yl)acetic acid]",13,–
"Cc1cc2nc(-c3ccnc(-c4ccc5c(cnn5C(F)(F)F)c4)c3)sc2c(-c2ccc(Cl)cc2)c1[C@H](OC(C)(C)C)C(=O)O [Compound 178, (S)-2-tert-butoxy-2-(7-(4-chlorophenyl)-5-methyl-2-(2-(1-(trifluoromethyl)-1H-indazol-5-yl)pyridin-4-yl)benzo[d]thiazol-6-yl)acetic acid]",89,–
Cc1cc2nc(-c3ccc4c(c3)c(=O)n(C)n4C)sc2c(-c2ccc(Cl)cc2)c1[C@H](OC(C)(C)C)C(=O)O [Compound 455],17,–
"Cc1cc2nc(N3CCCN(c4ccc5c(cnn5C)c4)C3=O)sc2c(-c2ccc(Cl)cc2)c1[C@H](OC(C)(C)C)C(=O)O [Compound 123, (S)-2-tert-butoxy-2-(7-(4-chlorophenyl)-5-methyl-2-(3-(1-methyl-1H-indazol-5-yl)-2-oxotetrahydropyrimidin-1(2H)-yl)benzo[d]thiazol-6-yl)acetic acid]",–,EC50 (HIV-IIIb; [2]): 18 nM
"Cc1cc2nc(-c3ccc4c(cnn4C4COC4)c3)sc2c(-c2ccc(Cl)cc2)c1[C@H](OC(C)(C)C)C(=O)O [Compound 329, (S)-2-tert-butoxy-2-(7-(4-chlorophenyl)-5-methyl-2-(1-(oxetan-3-yl)-1H-indazol-5-yl)benzo[d]thiazol-6-yl)acetic acid]",14,–
Cc1cc2nc(-c3ccnc(-c4cnn(C)c4C)n3)sc2c(-c2ccc(Cl)cc2)c1[C@H](OC(C)(C)C)C(=O)O [Compound 347],42,–
"Cc1cc2nc(-c3cnc4cnn(C)c4c3)sc2c(-c2ccc(Cl)cc2)c1[C@H](OC(C)(C)C)C(=O)O [Compound 111, (S)-2-tert-butoxy-2-(7-(4-chlorophenyl)-5-methyl-2-(1-methyl-1H-pyrazolo[4,3-b]pyridin-6-yl)benzo[d]thiazol-6-yl)acetic acid]",–,EC50 (HIV-IIIb; [2]): 8 nM
Cc1cc2nc(-c3ccc4c(c3)c(-c3cnccn3)nn4C)sc2c(-c2ccc(Cl)cc2)c1[C@H](OC(C)(C)C)C(=O)O [Compound 428],7,–
"Cc1cc2nc(-c3ccc4nc(C)n([C@H]5CCN(C)C5)c4c3)sc2c(-c2ccc(Cl)cc2)c1[C@H](OC(C)(C)C)C(=O)O [Compound 200, (S)-2-tert-butoxy-2-(7-(4-chlorophenyl)-5-methyl-2-(2-methyl-1-((S)-1-methylpyrrolidin-3-yl)-1H-benzo[d]imidazol-6-yl)benzo[d]thiazol-6-yl)acetic acid]",14,–
Cc1cc2nc(-c3cc(-c4ccc5c(cnn5C)c4)nnc3C)sc2c(-c2ccc(Cl)cc2)c1[C@H](OC(C)(C)C)C(=O)O [Compound 335],14,–
"Cc1cc2nc(-c3cccc(-c4ccc5c(cnn5C)c4)c3)sc2c(-c2cc(F)c3c(c2C)C(=O)CCO3)c1[C@H](OC(C)(C)C)C(=O)O (atropisomer, axis not shown) [Compound 167]",–,EC50 (HIV-IIIb; [2]): 39 nM
"Cc1cc2nc(-c3ccnc(N4CC[C@H](N(C)C)C4)n3)sc2c(-c2ccc(Cl)cc2)c1[C@H](OC(C)(C)C)C(=O)O [Compound 478, (S)-2-tert-butoxy-2-(7-(4-chlorophenyl)-2-(2-((S)-3-(dimethylamino)pyrrolidin-1-yl)pyrimidin-4-yl)-5-methylbenzo[d]thiazol-6-yl)acetic acid]",4,–
Cc1cc2nc(-c3cccc(-c4cn(C)nc4C)c3)sc2c(-c2ccc(Cl)cc2)c1[C@H](OC(C)(C)C)C(=O)O [Compound 145],–,EC50 (HIV-IIIb; [2]): 34 nM
"Cc1cc2nc(-c3ccc4c(c3)n(C)c(=O)n4C)sc2c(-c2ccc(Cl)cc2)c1[C@H](OC(C)(C)C)C(=O)O [Compound 286, (S)-2-(tert-butoxy)-2-(7-(4-chlorophenyl)-2-(1,3-dimethyl-2-oxo-2,3-dihydro-1H-benzo[d]imidazol-5-yl)-5-methylbenzo[d]thiazol-6-yl)acetic acid]",10,–
"COC1CN(c2nc3cc(C)c([C@H](OC(C)(C)C)C(=O)O)c(-c4ccc5c6c(ccnc46)CCO5)c3s2)C1 (atropisomer, axis not shown) [Compound 55, (S)-2-tert-butoxy-2-((R)-7-(2,3-dihydropyrano[4,3,2-de]quinolin-7-yl)-2-(3-methoxyazetidin-1-yl)-5-methylbenzo[d]thiazol-6-yl)acetic acid]",–,EC50 (HIV-IIIb; Table 1): 53000 nM
"Cc1cc2nc(-c3ccc4c(c3)c(-c3ccccn3)nn4C)sc2c(-c2ccc(Cl)cc2)c1[C@H](OC(C)(C)C)C(=O)O [Compound 214, (S)-2-tert-butoxy-2-(7-(4-chlorophenyl)-5-methyl-2-(1-methyl-3-(pyridin-2-yl)-1H-indazol-5-yl)benzo[d]thiazol-6-yl)acetic acid]",17,–

# — US8987250B2 (Gilead Sciences, Inc., priority 2012, dated 2015)
